The text below walks through data of patent US6486195B1, “Thermodynamically stable crystal form of 4″-deoxy-4″-epi-methylamino avermectin B1a/B1b benzoic acid salt and processes for its preparation” (Merck & Co., Inc., priority 1993, dated 2002).

The nature of data set [1]: thermodynamic stability of the crystalline forms. The conditions noted are these: among the four crystalline forms A, B, C and D. Type of data set: physicochemical.
Data set [2] in a line: hygroscopicity of the crystal forms. Type of data set: physicochemical. The note with it: compared with the other crystal forms (A, C, D).

As to “4″-deoxy-4″-epi-methylamino avermectin B1a/B1b, benzoic acid salt, hemihydrate [Type B]”, the “thermodynamic stability of crystalline form” value in data set [1] is listed as “most thermodynamically stable”. Moreover, the hygroscopicity result in data set [2] was “significantly less hygroscopic”.
